The record followed here is US10155769B2, “Fused azaheterocyclic compounds and their use as AMPA receptor modulators” (Janssen Pharmaceutica NV, priority 2016, dated 2018).

The test addresses GluA1o-γ8 (Homo sapiens (Human), UniProt P42261+Q8WXS5). The test can be described thus: Calcium flux assay (FLIPR), inhibition of TARP γ8 dependent AMPA receptor activity. In kind it is cell-based. The settings on record: HEK293 cells stably expressing GRIA1o-CACNG8 fusion construct; calcium flux following 15 μM glutamate; negative log of IC50 in molar. The source says:
This assay was used to test compounds for their ability to inhibit TARP γ8 dependent AMPA receptor activity. The AMPA receptor is a non-selective cation channel activated by glutamate. Ionotropic glutamate receptors normally desensitize too rapidly to allow detectable calcium influx in a FLIPR assay (Strange et al. (2006). “Functional characterisation of homomeric ionotropic glutamate receptors GluR1-GluR6 in a fluorescence-based high throughput screening assay.” Comb Chem High Throughput Screen 9(2): 147-158). But, this desensitization is incomplete, and a substantial steady-state current remains in the sustained presence of glutamate (Cho et al. (2007). “Two families of TARP isoforms that have distinct effects on the kinetic properties of AMPA receptors and synaptic currents.” Neuron 55(6): 890-904).
An in vitro assay was used to determine the potency of test compounds as inhibitors of the glutamate response of the channel formed by GluA1o-γ8. To ensure a 1:1 stoichiometry of GluA1o and γ8 subunits in the expressed channel, a fusion of the cDNAs for GRIA1o and CACNG8 was used. Following Shi et al (2009) “The stoichiometry of AMPA receptors and TARPs varies by neuronal cell type.” Neuron 62(5): 633-640), the C-terminus of the cDNA for GRIA1o was fused to the N-terminus of the cDNA for γ8. The linker sequence was QQQQQQQQQQEFAT. Channels expressed with this construct appear to have similar properties to channels formed by co-expression of GRIA1o with an excess of CACNG8 (Shi et al. 2009). A clonal cell line in HEK293 cells stably expressing this construct, with a geneticin selection marker, was generated for use in this assay.
Cell expressing the GRIA1o-CACNG8 fusion construct were grown in a monolayer in 96- or 384-well microtiter plates. They were washed with assay buffer (135 mM NaCl, 4 mM KCl, 3 mM CaCl2, 1 mM MgCl2, 5 mM glucose, 10 mM HEPES, pH 7.4, 300 mOs) using a Biotek EL405 plate washer. The cells were then loaded with a calcium-sensitive dye (Calcium-5 or Calcium-6, Molecular Devices) and the test compounds at a range of concentrations. Calcium flux following the addition of 15 μM glutamate was monitored using a Molecular Devices FLIPR Tetra.
The fluorescence in each well was normalized to the fluorescence of negative and positive control wells. The negative control wells had no added compounds, and the positive control wells had been incubated with 10 μM CP465022 (a non-subtype-selective AMPA receptor antagonist) (Lazzaro et al. (2002). “Functional characterization of CP-465,022, a selective, noncompetitive AMPA receptor antagonist.” Neuropharmacology 42(2): 143-153). The responses to glutamate as functions of the test compound concentrations were fitted to a four-parameter logistic function. The fitted parameter corresponding to the midpoint was taken to be the potency of inhibition of the compound. The data in Table 4 below illustrates the observed potency for the compounds described herein. pIC50 refers to the negative log of the IC50 in molar.

GluA1o-γ8, sequence (P42261 other isoform, or with tags, fused parts or gaps): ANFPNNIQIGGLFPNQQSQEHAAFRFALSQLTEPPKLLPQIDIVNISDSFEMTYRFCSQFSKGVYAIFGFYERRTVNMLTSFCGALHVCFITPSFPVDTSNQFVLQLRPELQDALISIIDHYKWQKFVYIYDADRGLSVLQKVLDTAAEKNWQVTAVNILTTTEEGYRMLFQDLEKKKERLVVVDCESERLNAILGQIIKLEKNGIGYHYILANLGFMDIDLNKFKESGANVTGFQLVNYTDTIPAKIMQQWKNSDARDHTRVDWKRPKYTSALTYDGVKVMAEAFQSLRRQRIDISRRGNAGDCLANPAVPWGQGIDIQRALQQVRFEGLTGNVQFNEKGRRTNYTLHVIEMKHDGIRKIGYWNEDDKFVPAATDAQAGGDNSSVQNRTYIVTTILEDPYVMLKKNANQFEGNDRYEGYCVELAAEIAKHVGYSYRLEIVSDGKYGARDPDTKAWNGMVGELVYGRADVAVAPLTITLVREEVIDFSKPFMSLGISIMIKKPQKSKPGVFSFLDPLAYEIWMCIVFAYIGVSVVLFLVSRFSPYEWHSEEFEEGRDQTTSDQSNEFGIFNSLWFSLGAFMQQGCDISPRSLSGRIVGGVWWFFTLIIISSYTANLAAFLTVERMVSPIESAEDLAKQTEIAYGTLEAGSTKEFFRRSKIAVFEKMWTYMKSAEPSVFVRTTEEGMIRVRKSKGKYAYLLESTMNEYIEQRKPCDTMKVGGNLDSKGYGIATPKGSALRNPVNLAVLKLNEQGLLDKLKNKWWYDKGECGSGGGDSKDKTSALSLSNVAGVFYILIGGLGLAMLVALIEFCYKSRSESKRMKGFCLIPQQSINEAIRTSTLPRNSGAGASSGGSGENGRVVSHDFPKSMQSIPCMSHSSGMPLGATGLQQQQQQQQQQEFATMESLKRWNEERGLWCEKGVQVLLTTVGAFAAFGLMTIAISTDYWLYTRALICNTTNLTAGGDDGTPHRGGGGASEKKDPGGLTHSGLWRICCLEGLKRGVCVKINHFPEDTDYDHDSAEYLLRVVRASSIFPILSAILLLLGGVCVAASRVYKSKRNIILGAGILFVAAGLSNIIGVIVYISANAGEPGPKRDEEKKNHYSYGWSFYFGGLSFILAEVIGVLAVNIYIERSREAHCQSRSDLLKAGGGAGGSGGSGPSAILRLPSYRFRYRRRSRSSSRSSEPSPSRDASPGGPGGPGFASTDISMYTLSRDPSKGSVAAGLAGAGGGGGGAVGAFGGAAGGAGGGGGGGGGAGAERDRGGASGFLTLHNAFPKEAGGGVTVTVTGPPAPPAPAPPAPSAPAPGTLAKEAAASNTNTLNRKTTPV

Usually pIC50 stands for −log10 of the IC50, conventionally taken in molar units. Consider `FC(F)(F)c1cn2ccc(C(F)(F)F)c(-c3ccc4[nH]ncc4c3)c2n1` [Example 61, 5-(2,7-Bis(trifluoromethyl)imidazo[1,2-a]pyridin-8-yl)-1H-indazole], for which the pIC50 stood at 7.5.
With `COCc1nc2c(-c3cc(C)c4[nH]ncc4c3)c(-c3ccc(F)cc3)ccn2n1` [Example 47, 7-(4-Fluorophenyl)-2-(methoxymethyl)-8-(7-methyl-1H-indazol-5-yl)-[1,2,4]triazolo[1,5-a]pyridine], the negative-log IC50 (pIC50) was determined as 8.7.
Turning to `CC(C)c1cn2cnc(C(F)(F)F)c(-c3cc(Cl)c4[nH]ncc4c3)c2n1` [Example 66, 8-(7-Chloro-1H-indazol-5-yl)-2-isopropyl-7-(trifluoromethyl)imidazo[1,2-c]pyrimidine], the negative-log IC50 (pIC50) amounted to 10.0.
In the case of `Cc1cc(-c2c(C(F)(F)F)ccn3nc(C(C)C)nc23)cc2cn[nH]c12` [Example 38, 2-Isopropyl-8-(7-methyl-1H-indazol-5-yl)-7-(trifluoromethyl)-[1,2,4]triazolo[1,5-a]pyridine], the negative logarithm of the IC50 (pIC50) came out at 8.7.
As for `Cc1cc(-c2c(C(C)C)ccn3nc(C(F)(F)F)nc23)cc2cn[nH]c12` [Example 49, 7-Isopropyl-8-(7-methyl-1H-indazol-5-yl)-2-(trifluoromethyl)-[1,2,4]triazolo[1,5-a]pyridine], the pIC50 amounted to 10.5.
Still for that read-out and setting: for `Cc1cc(-c2c(C(F)(F)F)ccn3cc(C(F)(F)F)nc23)cc2c1NC(=O)C2` [Example 87, 5-(2,7-Bis(trifluoromethyl)imidazo[1,2-a]pyridin-8-yl)-7-methylindolin-2-one] the value was 9.4; for `CC(C)c1nc2c(-c3cc(Cl)c4[nH]ncc4c3)c(C(F)(F)F)ccn2n1` [Example 37, 8-(7-Chloro-1H-indazol-5-yl)-2-isopropyl-7-(trifluoromethyl)-[1,2,4]triazolo[1,5-a]pyridine], 9.9.
With `Cc1cc(-c2c(C(F)(F)F)ccn3nc(C(C)C)nc23)cc2c1NC(=O)C2` [Example 39, 5-[2-Isopropyl-7-(trifluoromethyl)-[1,2,4]triazolo[1,5-a]pyridin-8-yl]-7-methyl-indolin-2-one], the pIC50 came out at 9.2.
Turning to `Cc1cc(-c2c(Cl)ccn3nc(C(F)(F)F)nc23)cc2cn[nH]c12` [Example 2, 7-Chloro-8-(7-methyl-1H-indazol-5-yl)-2-(trifluoromethyl)-[1,2,4]triazolo[1,5-a]pyridine], the negative-log IC50 (pIC50) was determined as 8.5.
Turning to `Cc1cc(-c2c(C(F)(F)F)ccn3cc(C(F)F)nc23)cc2cn[nH]c12` [Example 93, 2-(Difluoromethyl)-8-(7-methyl-1H-indazol-5-yl)-7-(trifluoromethyl)imidazo[1,2-a]pyridine], the pIC50 is given as 9.3.
Turning to `CCc1ccn2nc(C(F)(F)F)nc2c1-c1cc(C)c2[nH]ncc2c1` [Example 28, 7-Ethyl-8-(7-methyl-1H-indazol-5-yl)-2-(trifluoromethyl)-[1,2,4]triazolo[1,5-a]pyridine], the negative-log IC50 (pIC50) was 9.1.
For orientation: IC50 means the concentration at which inhibition is half-maximal. Turning to `Cc1cc(-c2c(C)ccn3cc(C(F)(F)F)nc23)cc2c1NC(=O)C2` [Example 11, 7-Methyl-5-[7-methyl-2-(trifluoromethyl)imidazo[1,2-a]pyridin-8-yl]indolin-2-one], the half-inhibitory concentration (IC50) is 1 nM.
Take `Cc1cc(-c2c(-c3ccc(F)cc3)ccn3nc(C4CCC4)nc23)cc2cn[nH]c12` [Example 4, 2-Cyclobutyl-7-(4-fluorophenyl)-8-(7-methyl-1H-indazol-5-yl)-[1,2,4]triazolo[1,5-a]pyridine]: the pIC50 is recorded as 10.6.
For the compound `FC(F)c1cn2cnc(C3CC3)c(-c3cc(Cl)c4[nH]ncc4c3)c2n1` [Example 78, 8-(7-Chloro-1H-indazol-5-yl)-7-cyclopropyl-2-(difluoromethyl)imidazo[1,2-c]pyrimidine], the negative-log IC50 (pIC50) was 8.6.
The same measure, in the same setting: for `Cc1nc2c(-c3cc(C)c4[nH]ncc4c3)c(C(F)(F)F)ccn2n1` [Example 33, 2-Methyl-8-(7-methyl-1H-indazol-5-yl)-7-(trifluoromethyl)-[1,2,4]triazolo[1,5-a]pyridine] the value was 7.9.
Consider `FC(F)c1cn2cnc(C(F)(F)F)c(-c3cc(Cl)c4[nH]ncc4c3)c2n1` [Example 14, 8-(7-Chloro-1H-indazol-5-yl)-2-(difluoromethyl)-7-(trifluoromethyl)imidazo[1,2-c]pyrimidine], for which the IC50 was 0.398 nM.
Turning to `O=C1Cc2cc(-c3c(C(F)(F)F)ncn4cc(C5CC5)nc34)cc(F)c2N1` [Example 70, 5-[2-Cyclopropyl-7-(trifluoromethyl)imidazo[1,2-c]pyrimidin-8-yl]-7-fluoro-indolin-2-one], the negative logarithm of the IC50 (pIC50) was 5.3.
For `FC(F)(F)c1cn2ccc(C(F)(F)F)c(-c3cc(Cl)c4[nH]ncc4c3)c2n1` [Example 88, 5-(2,7-Bis(trifluoromethyl)imidazo[1,2-a]pyridin-8-yl)-7-chloro-1H-indazole], the negative logarithm of the IC50 (pIC50) was 10.3.
For the compound `Cc1cc(-c2c(C(F)(F)F)ccn3nc(C(F)(F)F)nc23)cc2cn[nH]c12` [Example 20, 8-(7-Methyl-1H-indazol-5-yl)-2,7-bis(trifluoromethyl)-[1,2,4]triazolo[1,5-a]pyridine], the negative logarithm of the IC50 (pIC50) came out at 9.3.
Regarding `O=c1[nH]c2ccc(-c3c(-c4ccc(F)cc4)ccn4nc(C(F)(F)F)nc34)cc2s1` [Example 5, 6-(7-(4-Fluorophenyl)-2-(trifluoromethyl)-[1,2,4]triazolo[1,5-a]pyridin-8-yl)benzo[d]thiazol-2(3H)-one], the pIC50 worked out at 9.6.
Same read-out and setting: for `Cc1cc(-c2c(C)ccn3cc(C(C)(C)C)nc23)cc2c1NC(=O)C2` [Example 54, 5-(2-tert-Butyl-7-methyl-imidazo[1,2-a]pyridin-8-yl)-7-methyl-indolin-2-one] the value was 7.1; for `FC(F)(F)c1nc2c(-c3cc(Cl)c4[nH]ncc4c3)c(Cl)ccn2n1` [Example 41, 7-Chloro-8-(7-chloro-1H-indazol-5-yl)-2-(trifluoromethyl)-[1,2,4]triazolo[1,5-a]pyridine], 9.0.
Consider `CCc1ncn2cc(C(F)F)nc2c1-c1cc(Cl)c2[nH]ncc2c1` [Example 75, 8-(7-Chloro-1H-indazol-5-yl)-2-(difluoromethyl)-7-ethyl-imidazo[1,2-c]pyrimidine], for which the pIC50 was 8.9.
In the case of `FC(F)(F)c1nc2c(-c3cc(Cl)c4[nH]ncc4c3)c(C(F)(F)F)ccn2n1` [Example 19, 8-(7-Chloro-1H-indazol-5-yl)-2,7-bis(trifluoromethyl)-[1,2,4]triazolo[1,5-a]pyridine], the negative logarithm of the IC50 (pIC50) came out at 9.6.
The same measure, in the same setting: for `O=C1Cc2cc(-c3c(C(F)(F)F)ccn4nc(C(F)F)nc34)cc(Cl)c2N1` [Example 17, 7-Chloro-5-(2-(difluoromethyl)-7-(trifluoromethyl)-[1,2,4]triazolo[1,5-a]pyridin-8-yl)indolin-2-one] the value was 8.9.
Consider `Cc1ccn2cc(C(F)(F)F)nc2c1-c1cc(C)c2[nH]ncc2c1` [Example 52, 7-Methyl-8-(7-methyl-1H-indazol-5-yl)-2-(trifluoromethyl)imidazo[1,2-a]pyridine], for which the pIC50 is given as 8.0.
On to `Cc1cc(-c2c(C(F)(F)F)ncn3cc(C4CC4)nc23)cc2cn[nH]c12` [Example 68, 2-Cyclopropyl-8-(7-methyl-1H-indazol-5-yl)-7-(trifluoromethyl)imidazo[1,2-c]pyrimidine], for which the negative-log IC50 (pIC50) is reported as 9.6.
On to `CC(C)c1ncn2cc(C(F)F)nc2c1-c1cc(Cl)c2[nH]ncc2c1` [Example 72, 8-(7-Chloro-1H-indazol-5-yl)-2-(difluoromethyl)-7-isopropyl-imidazo[1,2-c]pyrimidine], for which the pIC50 is reported as 9.5.
In the case of `Cc1cc(-c2c(C(F)(F)F)ccn3nc(C4CC4)nc23)cc2cn[nH]c12` [Example 31, 2-Cyclopropyl-8-(7-methyl-1H-indazol-5-yl)-7-(trifluoromethyl)-[1,2,4]triazolo[1,5-a]pyridine], the pIC50 is given as 9.7.
On to `Cc1cc(-c2c(C#N)ccn3nc(C(F)(F)F)nc23)cc2cn[nH]c12` [Example 10, 8-(7-Methyl-1H-indazol-5-yl)-2-(trifluoromethyl)-[1,2,4]triazolo[1,5-a]pyridine-7-carbonitrile], for which the negative logarithm of the IC50 (pIC50) worked out at 7.7.
